Reference: ChEMBL document CHEMBL1255556, “6-Alkoxyisoindolin-1-one based dopamine D2 partial agonists as potential antipsychotics” (Bioorg Med Chem Lett, 2010)
pKi: −log10 of the molar value.

Experiments:
[1] = molecular target: 5-hydroxytryptamine receptor 2A (Homo sapiens, UniProt P28223); experiment: Binding affinity to human 5HT2A receptor
[2] = molecular target: T1, 5-hydroxytryptamine receptor 1A (Homo sapiens, UniProt P08908); experiment: biochemical
T1 sequence (P08908 whole entry): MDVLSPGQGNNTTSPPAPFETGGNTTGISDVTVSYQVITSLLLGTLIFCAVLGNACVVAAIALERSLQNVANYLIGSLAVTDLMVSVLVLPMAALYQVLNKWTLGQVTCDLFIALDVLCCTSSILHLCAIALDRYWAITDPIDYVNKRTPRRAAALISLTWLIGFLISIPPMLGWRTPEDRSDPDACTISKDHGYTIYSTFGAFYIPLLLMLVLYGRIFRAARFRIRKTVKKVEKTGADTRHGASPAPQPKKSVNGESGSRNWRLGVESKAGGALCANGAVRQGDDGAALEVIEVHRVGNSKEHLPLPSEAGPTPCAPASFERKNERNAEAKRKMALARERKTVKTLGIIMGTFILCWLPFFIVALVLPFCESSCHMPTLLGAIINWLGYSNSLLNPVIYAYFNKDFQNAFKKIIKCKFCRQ
Description: Displacement of [3H]-8-OH-DPAT from human 5HT1A receptor expressed in HeLa cells

[3] = molecular target: Voltage-gated inwardly rectifying potassium channel KCNH2 (Homo sapiens, UniProt Q12809)
Voltage-gated inwardly rectifying potassium channel KCNH2, sequence (Q12809 whole entry): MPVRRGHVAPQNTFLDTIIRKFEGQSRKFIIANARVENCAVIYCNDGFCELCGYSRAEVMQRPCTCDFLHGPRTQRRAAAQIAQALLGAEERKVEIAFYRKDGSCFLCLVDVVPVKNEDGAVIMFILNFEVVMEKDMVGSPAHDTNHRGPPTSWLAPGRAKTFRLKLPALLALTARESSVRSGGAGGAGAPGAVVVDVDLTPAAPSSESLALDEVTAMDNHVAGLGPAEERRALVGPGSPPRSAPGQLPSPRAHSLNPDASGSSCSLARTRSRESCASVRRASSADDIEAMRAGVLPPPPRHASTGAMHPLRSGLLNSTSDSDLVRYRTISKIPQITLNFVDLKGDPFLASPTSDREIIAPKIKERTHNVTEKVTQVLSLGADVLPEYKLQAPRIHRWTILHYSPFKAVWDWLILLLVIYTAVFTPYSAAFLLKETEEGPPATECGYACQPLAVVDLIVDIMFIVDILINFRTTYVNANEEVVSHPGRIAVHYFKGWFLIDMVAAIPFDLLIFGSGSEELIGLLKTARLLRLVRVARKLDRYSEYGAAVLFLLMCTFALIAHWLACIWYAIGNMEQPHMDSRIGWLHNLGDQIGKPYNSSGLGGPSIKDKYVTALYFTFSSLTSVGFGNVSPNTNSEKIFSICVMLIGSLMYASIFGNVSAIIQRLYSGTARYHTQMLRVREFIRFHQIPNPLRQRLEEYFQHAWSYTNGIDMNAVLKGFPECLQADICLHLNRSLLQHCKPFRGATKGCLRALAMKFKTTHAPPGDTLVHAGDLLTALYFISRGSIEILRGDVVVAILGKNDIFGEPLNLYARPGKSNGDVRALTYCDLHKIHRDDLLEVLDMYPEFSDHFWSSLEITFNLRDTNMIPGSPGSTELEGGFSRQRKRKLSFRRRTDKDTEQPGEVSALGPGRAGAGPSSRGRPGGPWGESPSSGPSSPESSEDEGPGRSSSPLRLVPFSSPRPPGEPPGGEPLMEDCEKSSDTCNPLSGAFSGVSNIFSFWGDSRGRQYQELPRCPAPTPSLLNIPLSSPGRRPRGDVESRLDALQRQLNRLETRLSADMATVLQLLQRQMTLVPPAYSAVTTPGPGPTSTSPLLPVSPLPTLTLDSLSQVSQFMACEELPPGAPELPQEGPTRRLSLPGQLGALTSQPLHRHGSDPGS
Description: Displacement of [3H]dofetilide from human ERG

[4] = molecular target: T1, 5-hydroxytryptamine receptor 1A; experiment: Binding affinity to human 5HT1A receptor expressed in HeLa cells by scintillation proximity assay; type: cell-based
[5] = molecular target: T2, Sodium-dependent serotonin transporter (Homo sapiens, UniProt P31645); experiment: Displacement of [3H]-citalopram from human serotonin transporter expressed in HEK 293 cells by scintillation proximity assay; type: cell-based, HEK293
T2 sequence (P31645 whole entry): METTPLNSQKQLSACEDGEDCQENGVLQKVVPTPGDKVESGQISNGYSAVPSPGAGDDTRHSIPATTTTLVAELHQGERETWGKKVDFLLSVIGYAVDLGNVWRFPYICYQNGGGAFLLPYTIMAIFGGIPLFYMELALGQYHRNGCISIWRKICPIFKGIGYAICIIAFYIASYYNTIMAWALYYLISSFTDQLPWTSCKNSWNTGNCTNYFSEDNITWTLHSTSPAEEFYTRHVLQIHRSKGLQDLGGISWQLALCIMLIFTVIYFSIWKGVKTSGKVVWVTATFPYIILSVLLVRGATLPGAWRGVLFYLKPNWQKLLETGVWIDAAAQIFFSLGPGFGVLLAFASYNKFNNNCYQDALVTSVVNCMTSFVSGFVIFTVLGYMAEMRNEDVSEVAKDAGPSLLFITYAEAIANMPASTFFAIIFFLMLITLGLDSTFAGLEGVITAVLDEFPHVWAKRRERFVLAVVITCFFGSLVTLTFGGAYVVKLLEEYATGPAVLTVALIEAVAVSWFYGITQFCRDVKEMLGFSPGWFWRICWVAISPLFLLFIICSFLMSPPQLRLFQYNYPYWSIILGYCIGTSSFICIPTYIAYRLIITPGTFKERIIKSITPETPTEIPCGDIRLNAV

[6] = molecular target: T2, Sodium-dependent serotonin transporter; experiment: Displacement of [3H]-citalopram from human serotonin transporter expressed in HEK 293 cells; type: cell-based, HEK293

5-hydroxytryptamine receptor 2A, sequence (P28223 whole entry): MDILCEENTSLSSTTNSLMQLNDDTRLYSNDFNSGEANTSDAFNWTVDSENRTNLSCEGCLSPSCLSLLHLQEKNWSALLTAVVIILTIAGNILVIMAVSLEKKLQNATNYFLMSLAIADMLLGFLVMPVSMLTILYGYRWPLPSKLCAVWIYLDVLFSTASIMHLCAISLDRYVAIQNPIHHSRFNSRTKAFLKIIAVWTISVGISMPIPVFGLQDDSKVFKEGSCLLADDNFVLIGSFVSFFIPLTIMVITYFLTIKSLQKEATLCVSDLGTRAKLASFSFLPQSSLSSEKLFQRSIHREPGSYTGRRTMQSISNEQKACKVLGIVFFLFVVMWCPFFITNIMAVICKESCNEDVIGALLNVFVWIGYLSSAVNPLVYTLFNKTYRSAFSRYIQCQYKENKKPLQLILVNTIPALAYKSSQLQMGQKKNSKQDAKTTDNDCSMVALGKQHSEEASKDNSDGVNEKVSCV

Structure (SMILES) | pKi [1] | pKi [2] | pKi [4] | pKi [5] | pKi [6] | pKi [3]
O=C1NCc2ccc(OCCCN3CCN(c4cccc5cc(F)c(F)cc45)CC3)cc21 | 7.70 | 9.75 |  |  |  | 6.04
Cc1cc2c(cc1OCCCN1CCN(c3cccc4cc(F)ccc34)CC1)C(=O)NC2 | 7.28 |  | 9.29 | 7.87 |  | 
O=C1NCc2ccc(OCCCCN3CCN(c4cccc5ccc(F)cc45)CC3)cc21 | 7.94 | 9.08 |  |  |  | 
O=C1NCc2cc(F)c(OCCCN3CCN(c4cccc5ccccc45)CC3)cc21 | 7.49 |  | 9.17 |  | 7.26 | 
Cc1c(OCCCN2CCN(c3cccc4cc(F)ccc34)CC2)ccc2c1C(=O)NC2 | 7.90 |  | 8.97 | 7.67 |  | 
O=C1NCc2ccc(OCCCN3CCN(c4cccc5c4COCC5)CC3)cc21 | 7.95 | 9.97 |  |  |  | 
O=C1NCc2cc(F)c(OCCCN3CCN(c4cccc5cc(F)ccc45)CC3)cc21 | 7.41 |  | 9.06 | 8.04 | 7.65 | 
O=C1NCc2cc(Cl)c(OCCCN3CCN(c4cccc5ccccc45)CC3)cc21 | 7.46 |  | 9.09 | 7.17 |  | 
O=C1NCc2cc(F)c(OCCCCN3CCN(c4cccc5cc(F)ccc45)CC3)cc21 | 7.86 |  | 8.57 | 7.89 | 8.04 | 
O=C1NCc2ccc(OCCCCN3CCN(c4cccc5c4CCO5)CC3)cc21 | 7.27 |  | 8.84 |  |  | 
Cc1cc2c(cc1OCCCCN1CCN(c3cccc4ccccc34)CC1)C(=O)NC2 | 7.43 |  | 9.10 | 6.30 |  | 
O=C1NCc2cc(F)c(OCCCCN3CCN(c4cccc5ccc(F)cc45)CC3)cc21 | 8.00 |  | 8.75 |  | 6.96 | 
Cc1cc2c(cc1OCCCN1CCN(c3cccc4cccc(F)c34)CC1)C(=O)NC2 | 7.18 |  | 8.84 | 6.76 |  | 
O=C1NCc2ccc(OCCCCN3CCN(c4cccc5c4CCC5)CC3)cc21 | 8.00 |  | 9.13 |  |  | 
Cc1cc2c(cc1OCCCCN1CCN(c3cccc4cccc(F)c34)CC1)C(=O)NC2 | 7.26 |  | 8.44 | 6.93 |  | 
Cc1cc2c(cc1OCCCN1CCN(c3cccc4ccccc34)CC1)C(=O)NC2 | 7.25 |  | 9.17 | 5.98 |  | 
O=C1NCc2ccc(OCCCCN3CCN(c4cccc5c4CCOC5)CC3)cc21 |  | 8.70 |  |  |  | 
O=C1NCc2ccc(OCCCN3CCN(c4cccc5c4OCCC5)CC3)cc21 | 7.60 |  | 10.30 |  |  | 
O=C1NCc2cc(Cl)c(OCCCCN3CCN(c4cccc5ccccc45)CC3)cc21 | 7.61 |  | 8.63 | 7.02 |  | 
O=C1NCc2ccc(OCCCCN3CCN(c4cccc5c4COC5)CC3)cc21 | 6.90 |  | 8.16 |  |  | 
O=C1NCc2cc(F)c(OCCCCN3CCN(c4cccc5ccccc45)CC3)cc21 | 7.89 |  | 9.20 |  | 7.51 | 
Cc1c(OCCCCN2CCN(c3cccc4cc(F)ccc34)CC2)ccc2c1C(=O)NC2 | 7.85 |  | 7.76 | 7.33 |  | 
O=C1NCc2cc(Cl)c(OCCCCN3CCN(c4cccc5cccc(F)c45)CC3)cc21 | 7.60 |  | 8.77 | 7.34 |  | 
O=C1NCc2ccc(OCCCN3CCN(c4cccc5cccc(F)c45)CC3)cc21 |  | 10.85 |  |  |  | 5.89
O=C1NCc2ccc(OCCCCN3CCN(c4cccc5cc(F)c(F)cc45)CC3)cc21 |  | 8.89 |  |  |  | 
O=C1NCc2ccc(OCCCCN3CCN(c4cccc5c4OCCC5)CC3)cc21 | 7.77 |  | 9.06 |  |  | 
Cc1c(OCCCN2CCN(c3cccc4ccccc34)CC2)ccc2c1C(=O)NC2 | 8.03 |  | 9.21 | 6.71 |  | 
Cc1cc2c(cc1OCCCCN1CCN(c3cccc4cc(F)ccc34)CC1)C(=O)NC2 | 7.53 |  | 8.70 | 8.06 |  | 
Cc1c(OCCCN2CCN(c3cccc4cccc(F)c34)CC2)ccc2c1C(=O)NC2 | 7.79 |  | 8.67 | 6.36 |  | 

Continued by rising pKi [1], values first:

pKi [1] | pKi [2] | pKi [4] | pKi [5] | pKi [6] | Structure (SMILES) | pKi [3]
8.05 |  | 9.07 | 7.69 |  | O=C1NCc2cc(Cl)c(OCCCN3CCN(c4cccc5cccc(F)c45)CC3)cc21 | 
8.26 | 9.55 |  |  |  | O=C1NCc2ccc(OCCCCN3CCN(c4cccc5c4COCC5)CC3)cc21 | 
8.27 |  | 8.52 | 7.61 | 7.43 | O=C1NCc2ccc(OCCCN3CCN(c4cccc5cc(F)ccc45)CC3)c(F)c21 | 
8.31 |  | 9.57 |  |  | O=C1NCc2ccc(OCCCN3CCN(c4cccc5c4CCCC5)CC3)cc21 | 
8.37 |  | 8.84 |  |  | O=C1NCc2ccc(OCCCN3CCN(c4cccc5c4CCO5)CC3)cc21 | 
8.41 |  | 8.58 | 6.53 |  | Cc1c(OCCCCN2CCN(c3cccc4cccc(F)c34)CC2)ccc2c1C(=O)NC2 | 
8.45 |  | 9.51 | 6.64 |  | O=C1NCc2ccc(OCCCN3CCN(c4cccc5cccc(F)c45)CC3)c(Cl)c21 | 
8.46 |  | 9.93 | 7.37 | 7.98 | O=C1NCc2cc(F)c(OCCCCN3CCN(c4cccc5cccc(F)c45)CC3)cc21 | 
8.46 |  | > 9.85 |  | 6.80 | O=C1NCc2ccc(OCCCN3CCN(c4cccc5cccc(F)c45)CC3)c(F)c21 | 
8.47 | 10.35 |  |  |  | O=C1NCc2ccc(OCCCN3CCN(c4cccc5ccc(F)cc45)CC3)cc21 | 
8.47 |  | 8.72 |  |  | O=C1NCc2ccc(OCCCCN3CCN(c4cccc5c4CCCC5)CC3)cc21 | 
8.50 |  | < 8.39 |  |  | O=C1NCc2ccc(OCCCN3CCN(c4cccc5c4CCC5)CC3)cc21 | 
8.51 |  | 8.30 |  | 5.57 | O=C1NCc2ccc(OCCCCN3CCN(c4cccc5cc(F)ccc45)CC3)c(F)c21 | 
8.57 |  | 9.47 | 6.38 | 7.87 | O=C1NCc2cc(F)c(OCCCN3CCN(c4cccc5ccc(F)cc45)CC3)cc21 | 
8.66 |  | 9.89 |  | 7.07 | O=C1NCc2ccc(OCCCN3CCN(c4cccc5ccccc45)CC3)c(F)c21 | 
8.68 |  | 8.34 |  | 6.59 | O=C1NCc2ccc(OCCCCN3CCN(c4cccc5ccc(F)cc45)CC3)c(F)c21 | 
8.69 |  | 9.10 | 6.98 |  | O=C1NCc2ccc(OCCCN3CCN(c4cccc5ccccc45)CC3)c(Cl)c21 | 
8.90 |  | 8.49 | 6.41 |  | Cc1c(OCCCCN2CCN(c3cccc4ccccc34)CC2)ccc2c1C(=O)NC2 | 
8.92 |  | > 9.28 |  | 7.81 | O=C1NCc2cc(F)c(OCCCN3CCN(c4cccc5cccc(F)c45)CC3)cc21 | 
8.95 |  | 8.37 | 6.67 |  | O=C1NCc2ccc(OCCCCN3CCN(c4cccc5cccc(F)c45)CC3)c(Cl)c21 | 
8.97 |  | 8.44 |  | 5.60 | O=C1NCc2ccc(OCCCCN3CCN(c4cccc5ccccc45)CC3)c(F)c21 | 
9.04 |  | > 9.69 | 6.35 | 5.75 | O=C1NCc2ccc(OCCCN3CCN(c4cccc5ccc(F)cc45)CC3)c(F)c21 | 
9.25 |  | 8.68 | 7.32 | 7.24 | O=C1NCc2ccc(OCCCCN3CCN(c4cccc5cccc(F)c45)CC3)c(F)c21 | 
